Read-outs that look alike come from different tables or passages of the source.
Molecular target: T1, SARM1 (Homo sapiens, UniProt Q6SZW1)
T1 construct: AviTag […]; made in house; host or cells: NRK1-HEK293T cells, transiently transfected; the clarified sonicated lysate was used without purification
T1 sequence (Q6SZW1 with tags, fused parts or gaps): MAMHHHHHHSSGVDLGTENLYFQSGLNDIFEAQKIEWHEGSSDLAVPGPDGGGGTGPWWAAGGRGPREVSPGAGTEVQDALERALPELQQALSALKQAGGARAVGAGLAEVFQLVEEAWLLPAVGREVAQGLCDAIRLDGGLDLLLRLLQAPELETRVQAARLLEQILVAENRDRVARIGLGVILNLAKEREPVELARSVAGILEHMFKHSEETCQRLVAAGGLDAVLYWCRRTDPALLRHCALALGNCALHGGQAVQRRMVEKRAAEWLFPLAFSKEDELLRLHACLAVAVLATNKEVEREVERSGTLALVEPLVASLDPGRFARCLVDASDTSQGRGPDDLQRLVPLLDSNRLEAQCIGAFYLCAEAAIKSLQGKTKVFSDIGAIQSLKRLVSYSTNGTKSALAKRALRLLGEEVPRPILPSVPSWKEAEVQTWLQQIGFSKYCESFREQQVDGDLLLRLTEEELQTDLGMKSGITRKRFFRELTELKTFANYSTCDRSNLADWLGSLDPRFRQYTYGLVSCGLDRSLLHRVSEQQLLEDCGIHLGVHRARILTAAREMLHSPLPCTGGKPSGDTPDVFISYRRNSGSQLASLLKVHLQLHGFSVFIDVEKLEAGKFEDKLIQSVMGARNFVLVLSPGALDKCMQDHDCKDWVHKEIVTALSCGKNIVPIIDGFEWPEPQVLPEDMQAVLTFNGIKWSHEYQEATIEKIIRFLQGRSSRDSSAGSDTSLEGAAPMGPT
Assay: ARM-SAM-TIR SARM1 IC50 assay (NADase activity, NAD+ cleavage)
Assay type: biochemical
Description: This Example describes an assay of ARM-SAM-TTR NADase activity and use of this assay to measure the efficacy of compounds of Formula I or Formula II to block SARM1 mediated NAD+ cleavage. This assay is optimized in such a way as to characterize the efficacy of the compounds in Formula I or Formula II to inhibit SARM1 activity and to calculate an IC50 value for each compound. This assay makes use of full length SARI, which encompasses the ARM, SAM and TTR domains.
Preparation of ARM-SAM-TIR Lysate (STL)
NRK1-HEK293T cells were seeded onto 150 cm^2 plates at 20×10^6 cells per plate. The next day, the cells were transfected with 15 μg ARM-SAM-TIR expression plasmid, SEQ ID NO: 1.
The cultures were supplemented with 1 mM NR at time of transfection to minimize toxicity from ARM-SAM-TIR overexpression. Forty-eight hours after transfection, cells were harvested, pelleted by centrifugation at 1,000 rpm (Sorvall ST 16R centrifuge, Thermo Fisher), and washed once with cold PBS (0.01 M phosphate buffered saline NaCl 0.138 M; KCl 0.0027 M; pH 7.4). The cells were resuspended in PBS with protease inhibitors (cOmplete™ protease inhibitor cocktail, Roche product #11873580001) and cell lysates were prepared by sonication (Branson Sonifer 450, output=3, 20 episodes of stroke). The lysates were centrifuged (12,000×g for 10 min at 4° C.) to remove cell debris and the supernatants (containing ARM-SAM-TIR protein) were stored at −80° C. for later use in the in vitro ARM-SAM-TIR NADase assay (see below). Protein concentration was determined by the Bicinchoninic (BCA) method and used to normalize lysate concentrations.
ARM-SAM-TIR IC50 Assay of Formula I or Formula II Compounds.
The enzymatic assay was performed in a 384-well polypropylene plate in Dulbecco's PBS buffer in a final assay volume of 20 μL. ARM-SAM-TIR lysate with a final concentration of 5 μg/mL was pre-incubated with the respective compound at 1% DMSO final assay concentration over 2 h at room temperature. The reaction was initiated by addition of 5 μM final assay concentration of NAD+ as substrate. After a 2 hr room temperature incubation, the reaction was terminated with 40 μL of stop solution of 7.5% trichloroactetic acid in acetonitrile. The NAD+ and ADPR concentrations were analyzed by a RapidFire High Throughput Mass Spectrometry System (Agilent Technologies, Santa Clara, CA) using an API4000 triple quadrupole mass spectrometer (AB Sciex Framingham, MA).

[1] = ARM-SAM-TIR lysate 5 μg/mL from NRK1-HEK293T cells, 2 h pre-incubation with compound, 5 μM NAD+, 2 hr room temperature, NAD+ and ADPR by RapidFire mass spectrometry, read-out: SARM1 IC50

| SMILES | IC50 [1] [µM] | IC50 [µM] |
| --- | --- | --- |
| N#Cc1cc(N2CCSCC2)nc2ccc(Cl)cc12 [Example 92] | < 5 |  |
| N#Cc1cc(N2CCCCC2)nc2ccc(Cl)cc12 [Example 4] | < 5 |  |
| N#Cc1cc(N2CCC(C(N)=O)C2)nc2ccc(Cl)cc12 (stereo not shown) [Example 67] | < 5 |  |
| CO[C@H]1CCN(c2cc(C#N)c3cc(Cl)ccc3n2)C1 [Example 49] | < 5 |  |
| Cn1cc(-c2cc(C#N)c3cc(Cl)ccc3n2)cn1 [Example 86] | 5 to 15 |  |
| CNC(=O)[C@H]1CCCN(c2cc(C#N)c3cc(Cl)ccc3n2)C1 [Example 79] | < 5 |  |
| CC1CC(CNc2cc(C#N)c3cc(Cl)ccc3n2)CCO1 (stereo not shown) [Example 36] | < 5 |  |
| N#Cc1cc(N2CC3CCC2CN3)nc2ccc(Cl)cc12 (stereo not shown) [Example 74] |  | < 5 |
| C[C@@H]1CCCCN1c1cc(C#N)c2cc(Cl)ccc2n1 [Example 82] | < 5 |  |
| CN(C)c1cc(C#N)c2cc(Cl)ccc2n1 [Example 5] | < 5 |  |
| CN(C)C(=O)[C@H]1CCCN(c2cc(C#N)c3cc(Cl)ccc3n2)C1 [Example 80] | < 5 |  |
| CS(=O)(=O)C1CCN(c2cc(C#N)c3cc(Cl)ccc3n2)C1 (stereo not shown) [Example 47] | < 5 |  |
| CO[C@@H]1CCN(c2cc(C#N)c3cc(Cl)ccc3n2)C1 [Example 48] | < 5 |  |
| N#Cc1cc(NC2CCCCNC2=O)nc2ccc(Cl)cc12 (stereo not shown) [Example 31] | < 5 |  |
| COC1CCN(c2cc(C#N)c3cc(Cl)ccc3n2)CC1 [Example 54] | < 5 |  |
| N#Cc1cc(N2CCC[C@H](O)C2)nc2ccc(Cl)cc12 [Example 77] | < 5 |  |
| N#Cc1cc(N2CCCCC2)nc2ccc(F)cc12 [Example 24] | < 5 |  |
| C[C@H]1CCCCN1c1cc(C#N)c2cc(Cl)ccc2n1 [Example 83] | < 5 |  |
| Cc1ccc2nc(N(C)C)cc(C#N)c2c1 [Example 19] | < 5 |  |
| CNc1cc(C#N)c2cc(Cl)ccc2n1 [Example 50] | < 5 |  |
| C[C@H]1CCCN(c2cc(C#N)c3cc(Cl)ccc3n2)C1 [Example 63] | < 5 |  |
| N#Cc1cc(N2CCCC2)nc2ccc(Cl)cc12 [Example 10] | < 5 |  |

| SMILES | IC50 [1] [µM] | IC50 [µM] |
| --- | --- | --- |
| N#Cc1cc(N2CC[C@@H](O)C2)nc2ccc(Cl)cc12 [Example 11] | < 5 |  |
| N#Cc1cc(N2CCCCC2)nc2cc(Cl)ccc12 [Example 26] | < 5 |  |
| N#Cc1cc(N2C3CNCC2C3)nc2ccc(Cl)cc12 [Example 72] |  | < 5 |
| CS(=O)(=O)C1CCN(c2cc(C#N)c3cc(Cl)ccc3n2)CC1 [Example 55] | 5 to 15 |  |
| CC(C)(C)OC(=O)NC1CCN(c2cc(C#N)c3cc(C4=CCOC4)ccc3n2)CC1 [Example 93] | < 5 |  |
| Cc1cc(N2CCC(NCCO)CC2)nc2ccc(Cl)cc12 [Example 9] | > 30 |  |
| Cc1ccc2nc(N3CCCCC3)cc(C#N)c2c1 [Example 18] | 5 to 15 |  |
| N#Cc1cc(N2CCC(C(N)=O)CC2)nc2ccc(Cl)cc12 [Example 56] | 5 to 15 |  |
| N#Cc1cc(N2CCC(O)CC2)nc2ccc(Cl)cc12 [Example 75] | < 5 |  |
| N#Cc1cc(NC2CCCN(C(N)=O)C2)nc2ccc(Cl)cc12 (stereo not shown) [Example 37] | < 5 |  |
| N#Cc1cc(N2CCC[C@H](C(=O)N3CCOCC3)C2)nc2ccc(Br)cc12 [Example 101] | < 5 |  |
| N#Cc1cc(N2CC[C@H](N)C2)nc2ccc(Cl)cc12 [Example 66] | < 5 |  |
| CCN1CCN(c2cc(C#N)c3cc(Cl)ccc3n2)CC1 [Example 53] | > 30 |  |
| N#Cc1cc(NCc2cccc(C(N)=O)c2)nc2ccc(Cl)cc12 [Example 45] | < 5 |  |
| N#Cc1cc(NCC(O)c2ccco2)nc2ccc(Cl)cc12 (stereo not shown) [Example 30] | 5 to 15 |  |
| CNC(=O)C(CO)Nc1cc(C#N)c2cc(Cl)ccc2n1 (stereo not shown) [Example 39] | > 30 |  |
| CC(C)(C)OC(=O)N1C2CC1CN(c1cc(C#N)c3cc(Cl)ccc3n1)C2 [Example 91] |  | < 5 |
| N#Cc1cc(N2C[C@H]3C[C@@H]2CN3)nc2ccc(Cl)cc12 [Example 84] |  | 5 to 15 |
| N#Cc1cc(N2CCC[C@H](C(=O)N3CCCC3)C2)nc2ccc(Br)cc12 [Example 100] | < 5 |  |
| CC(O)CNc1cc(C#N)c2cc(Cl)ccc2n1 (stereo not shown) [Example 38] | 15 to 30 |  |
| CC(C)(C)OC(=O)NC1CCN(c2cc(C#N)c3cc(C4CCOC4)ccc3n2)CC1 (stereo not shown) [Example 94] | < 5 |  |

The next lines start with results.

| IC50 [1] [µM] | SMILES | IC50 [µM] |
| --- | --- | --- |
| < 5 | CS(=O)(=O)NC1CCN(c2cc(C#N)c3cc(Br)ccc3n2)CC1 [Example 117] |  |
| < 5 | N#Cc1cc(N2CCC(NS(N)(=O)=O)CC2)nc2ccc(Br)cc12 [Example 132] |  |
| < 5 | N#Cc1cc(N2CCC[C@H](NC(=O)c3cn[nH]c3)C2)nc2ccc(Br)cc12 [Example 127] |  |
| < 5 | N#Cc1cc(N2CCC[C@H](C(=O)NCC3CC3)C2)nc2ccc(Br)cc12 [Example 103] |  |
| < 5 | CN(CC1CC1)C(=O)C1CCN(c2cc(C#N)c3cc(Br)ccc3n2)CC1 [Example 124] |  |
| < 5 | CC(=O)N[C@]1(C)CCCN(c2cc(C#N)c3cc(Br)ccc3n2)C1 [Example 121] |  |
| < 5 | C[C@]1(NS(C)(=O)=O)CCCN(c2cc(C#N)c3cc(Br)ccc3n2)C1 [Example 120] |  |
| < 5 | Cn1cnc(C(=O)N[C@H]2CCCN(c3cc(C#N)c4cc(Br)ccc4n3)C2)c1 [Example 130] |  |
| < 5 | N#Cc1cc(N2CCC[C@H](NC(=O)c3cnccn3)C2)nc2ccc(Br)cc12 [Example 133] |  |
| < 5 | Cc1cncnc1C(=O)N[C@H]1CCCN(c2cc(C#N)c3cc(Br)ccc3n2)C1 [Example 135] |  |
| < 5 | N#Cc1cc(N2CCC(NCc3ccccc3)CC2)nc2ccc(Br)cc12 [Example 113] |  |
| < 5 | C[C@@H]1CCC[C@H](C)N1c1cc(C#N)c2cc(C(C)(C)O)ccc2n1 [Example 148] |  |
| < 5 | N#Cc1cc(N2CCOCC2C2CC2)nc2ccc(Cl)cc12 (stereo not shown) [Example 131] |  |
| < 5 | N#Cc1cc(N2CCC[C@H](NC(=O)c3cncnc3)C2)nc2ccc(Br)cc12 [Example 139] |  |
| < 5 | CN(CC1CC1)C(=O)[C@H]1CCCN(c2cc(C#N)c3cc(Br)ccc3n2)C1 [Example 115] |  |
| < 5 | N#Cc1cc(N2CC[C@H](C(=O)N3CCCC3)C2)nc2ccc(Br)cc12 [Example 142] |  |
| < 5 | C#CCCC1(CCNc2cc(C#N)c3cc(Cl)ccc3n2)N=N1 [Example 111] |  |
| < 5 | N#Cc1cc(N2CCCC(n3cccn3)C2)nc2ccc(Br)cc12 (stereo not shown) [Example 153] |  |
| < 5 | C[C@@H]1CCC[C@H](C)N1c1cc(C#N)c2ccccc2n1 [Example 144] |  |
| < 5 | N#Cc1cc(N2CCC[C@H](NC(=O)N3CCOCC3)C2)nc2ccc(Br)cc12 [Example 137] |  |
| < 5 | C[C@@H]1CCC[C@H](C)N1c1cc(C#N)c2cc(CO)ccc2n1 [Example 149] |  |
| < 5 | Cc1n[nH]cc1C(=O)N[C@H]1CCCN(c2cc(C#N)c3cc(Br)ccc3n2)C1 [Example 129] |  |
| < 5 | N#Cc1cc(N2CC[C@@H](C(=O)N3CCCC3)C2)nc2ccc(Br)cc12 [Example 143] |  |
| < 5 | CC(=O)N[C@@]1(C)CCCN(c2cc(C#N)c3cc(Br)ccc3n2)C1 [Example 119] |  |

Source: patent US12441719B2, “Inhibitors of SARM1” (Disarm Therapeutics, Inc., priority 2019, dated 2025)
